Test results reported in patent US20190350940A1, “PLATINUM COMPOUNDS, COMPOSITIONS, AND USES THEREOF” (priority 2015, published 2019).
Values joined by “and” are separate entries in the source; they are usually repeats but may differ in a detail not shown here. Equal entries are not always repeated. “Also recorded” adds a separate entry of the source.

Experiments:
CYP2D6 = CYP2D6 (Homo sapiens, UniProt P10635); experiment: CYP inhibition, 2D6; type: in vitro ADME
[1] = pH stability: pH range screen in Britton Robinson buffer (Impurity 2 formation); type: physicochemical; conditions: 0.1 mg/ml in Britton Robinson buffer, room temperature
Method: It has been well established in the literature that the maleimide group is susceptible to a ring-opening product at physiological pH values. In order to determine the stability of Compound 8 at a range of pH values, a stock solution of 10 mg/ml Compound 8 in N,N-dimethylformamide (DMF) was spiked into a series of Britton Robinson buffers with pH set at values of 2, 4, 5, 6, 7.3, and 8 to make a final concentration of 0.1 mg/ml Compound 8. The amount of Impurity 2 (maleimide ring opening impurity) that was produced over the course of 24 hr at room temperature is shown in FIG. 1.

[2] = system: BxPC-3 human pancreatic adenocarcinoma; experiment: BxPC-3 pancreatic xenograft model; type: in vivo, mouse; conditions: female, Crl:NU(NCr)-Foxn1^nu nude, mouse, in vivo, 20 mg/kg, 13 day
Method: The effect of Compound 8 on TGI was evaluated in the BxPC-3 human pancreatic adenocarcinoma nude mouse (female Crl:NU(NCr)-Foxn1^nu) xenograft model.

NCI-H520 human NSCLC = experiment: NCI-H520 lung xenograft model; type: in vivo, mouse; conditions: mouse, in vivo
Method: The effect of Compound 8 also was evaluated in the NCI-H520 human NSCLC nude mouse (female CrTac:NCr-Foxn1^nu) xenograft model. […] All treatments were statistically significant compared to vehicle (p<0.0001).

[3] = Temperature effects: mock manufacturing process; type: physicochemical; conditions: after 24 hrs
Method: In order to determine the effect of both temperature and light on the formation of the two main degradation products, mock manufacturing processes and mock clinical dilution studies were conducted. The mock process was simulated by formulating and holding the Compound 8 drug product at room temperature or under cold conditions (e.g. ice bath) for discreet amounts of time that would simulate the large scale manufacturing process. Once the samples went through the mock manufacturing process, they were stored at −20° C., as a frozen solution, and then thawed as they would be in the clinic prior to administration. For the mock clinical dilution study, each solution was diluted in saline, at the lowest dilution factor expected in the clinic. Then the diluted formulations were stored in syringes at room temperature and then assayed for potency and total impurities (from both procedures) at the end of the day.
For the mock manufacturing process, the room temperature samples were formulated and stored at room temperature for a total of 8 hrs and then refrigerated overnight. In contrast, the cold samples were formulated on ice, stored in the 2-8° C. for a total of 8 hrs, and at the end of the day frozen to −20° C.

female Beagle dogs = experiment: Cardiovascular and respiratory effects in Beagle dogs (Compound 8-TX-005); type: in vivo, dog
Method: The cardiovascular and respiratory effects of Compound 8 administered IV were evaluated in Beagle dogs (Compound 8-TX-005).

CYP1A2 = molecular target: T1, CYP1A2 (Homo sapiens, UniProt P05177); experiment: CYP inhibition, 1A2; type: in vitro ADME
T1 construct: host or cells: microsomes are mentioned
T1 sequence (P05177 whole entry): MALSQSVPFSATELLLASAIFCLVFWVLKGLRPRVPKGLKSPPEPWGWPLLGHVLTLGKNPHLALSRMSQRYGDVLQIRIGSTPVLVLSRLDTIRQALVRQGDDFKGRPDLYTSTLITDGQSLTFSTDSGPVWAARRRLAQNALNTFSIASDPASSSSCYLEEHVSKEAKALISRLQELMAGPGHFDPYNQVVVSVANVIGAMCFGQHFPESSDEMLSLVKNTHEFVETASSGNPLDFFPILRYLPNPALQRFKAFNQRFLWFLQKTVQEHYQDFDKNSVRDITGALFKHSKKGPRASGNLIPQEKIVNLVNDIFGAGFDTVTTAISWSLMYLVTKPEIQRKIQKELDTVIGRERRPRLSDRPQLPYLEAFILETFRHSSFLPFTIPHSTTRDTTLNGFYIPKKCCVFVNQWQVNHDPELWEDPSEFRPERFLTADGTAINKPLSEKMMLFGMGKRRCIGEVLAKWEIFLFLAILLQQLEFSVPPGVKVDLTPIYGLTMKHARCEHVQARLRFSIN

[4] = pH stability: buffering capacity (5 mM versus 100 mM citrate); type: physicochemical; conditions: 5 mM versus 100 mM citrate saline pH about 4; impurity profile over 10 hr
Method: In order to assess the effect of the buffering capacity, formulations were made with 5 mM and 100 mM citrate saline pH about 4. Two formulations were made in 100 mM citrate, one at 0.1 mg/ml and the other at 1 mg/ml. A third formulation of 5 mM citrate at 1 mg/ml was made for comparison to determine whether increasing the buffering capacity improved the stability of the formulation.

[5] = Total plasma and plasma ultrafiltrate platinum pharmacokinetics in mouse; type: in vivo
Method: Nonclinical studies were performed to evaluate the PK of platinum in plasma after IV administration of Compound 8 in the mouse, rat, and dog. The analyses included platinum levels both in total plasma as well as plasma ultrafiltrate.
Compound 8 was administered in 2 different formulations in mice. The formulation used in pharmacology studies was 5% dimethyl sulfoxide (DMSO)/10% Solutol/Saline, and the formulation used in PK studies was 5 mM citrate pH about 4; this latter formulation is that used in GLP toxicology studies in the rat and is the human clinical formulation.

Microsomal stability = type: in vitro ADME; conditions: NADPH-free controls
Source text: Microsomal stability could not be performed because negative controls failed. […] This is consistent with literature reports that microsomes contain protein thiols (Liebler D C, Meredith M J, Guengerich F P. Formation of glutathione conjugates by reactive metabolites of vinylidene chloride in microsomes and isolated hepatocytes. Cancer Res 1985; 45(1):186-93, the contents of which are incorporated herein by reference in their entirety), would react with Compound 8. CYP inhibition was studied to determine whether Compound 8 has an inhibitory effect on microsomes.

CYP2B6 = CYP2B6 (Homo sapiens, UniProt P20813); experiment: CYP inhibition, 2B6; type: in vitro ADME
Sequence of CYP2B6 (P20813 whole entry): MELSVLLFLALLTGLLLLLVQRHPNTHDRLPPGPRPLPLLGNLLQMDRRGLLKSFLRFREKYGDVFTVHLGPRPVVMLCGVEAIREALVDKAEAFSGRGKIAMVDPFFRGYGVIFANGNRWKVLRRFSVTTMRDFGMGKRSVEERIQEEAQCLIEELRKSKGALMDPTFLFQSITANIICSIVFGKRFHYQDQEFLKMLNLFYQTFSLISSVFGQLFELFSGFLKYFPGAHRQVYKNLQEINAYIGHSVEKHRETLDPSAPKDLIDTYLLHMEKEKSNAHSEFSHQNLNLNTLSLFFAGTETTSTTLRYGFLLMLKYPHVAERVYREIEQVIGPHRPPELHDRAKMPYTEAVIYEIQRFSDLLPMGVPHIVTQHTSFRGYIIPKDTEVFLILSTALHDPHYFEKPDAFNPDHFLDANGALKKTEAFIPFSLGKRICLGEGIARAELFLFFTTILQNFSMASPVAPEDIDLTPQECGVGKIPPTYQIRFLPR

male rats = experiment: Single dose intravenous dose range-finding toxicity study in male rats (Compound 8-TX-001); type: in vivo; conditions: rat
Method: (§1) This study (Compound 8-TX-001) was designed as a dose range finding study to support the dose selection for the repeat-dose IV toxicity GLP study in rats (Compound 8-TX-007).
(§2) The test article, Compound 8, was formulated prior to dosing as a solution in 5 mM citrate buffered saline (0.9% sodium chloride), pH about 4-4.5, at nominal concentrations of 2.7, 1.4, 1.9, and 2.3 mg/mL. Compound 8 was administered via IV injection to groups of 3 animals each at doses of 27, 14, 19, and 23 mg/kg. Dose formulations were all within the acceptance criteria (±10% of target concentration) ranging from 98.8 to 106.2 percent of target concentration. Assessment of toxicity was based on mortality, clinical observations, body weight, and food consumption, and clinical and anatomic pathology.

[6] = as above; type: in vivo; conditions: male, rat, in vivo, iv, single IV dose, male rats, N=3 per group; read-out: MTD and STD10
Method: as §1, §2

[7] = formulated under cold conditions

Sequence of CYP2D6 (P10635 whole entry): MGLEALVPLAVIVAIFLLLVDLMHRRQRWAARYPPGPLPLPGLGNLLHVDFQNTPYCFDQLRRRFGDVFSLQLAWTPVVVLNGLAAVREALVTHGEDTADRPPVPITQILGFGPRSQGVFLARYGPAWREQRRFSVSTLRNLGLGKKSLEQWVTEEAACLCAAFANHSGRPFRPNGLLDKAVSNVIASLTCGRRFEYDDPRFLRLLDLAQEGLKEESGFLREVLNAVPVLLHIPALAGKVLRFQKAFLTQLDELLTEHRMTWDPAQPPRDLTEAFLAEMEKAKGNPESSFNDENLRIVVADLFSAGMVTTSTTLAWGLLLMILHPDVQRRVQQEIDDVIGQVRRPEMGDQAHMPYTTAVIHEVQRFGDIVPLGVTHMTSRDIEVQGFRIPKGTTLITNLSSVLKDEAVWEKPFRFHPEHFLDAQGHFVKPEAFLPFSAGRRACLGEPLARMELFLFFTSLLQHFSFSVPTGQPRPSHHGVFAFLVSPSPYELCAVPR

## CC(=O)[O][Pt]([NH2])([NH2])([Cl])([Cl])[O]C(=O)NCCCCCN1C(=O)C=CC1=O [Compound 8]
CYP2D6
  IC50: 720 nM
[1]; pH 5, 4 hr
  Impurity 2 (maleimide ring opening impurity) formation: not detected
[1]; pH 6, within 1 hr
  Impurity 2 (maleimide ring opening impurity) formation: not detected
[1]; pH values below 4, up to 24 hr
  Impurity 2 (maleimide ring opening impurity) formation: not produced
[2]
  Treatment-related side effects: swollen tails on Day 13 in all animals
NCI-H520 human NSCLC; 10 mg/kg
  Mean maximal BW loss: 2.7%
NCI-H520 human NSCLC; 15 mg/kg
  Mean maximal BW loss: 11%
[3]; formulated at room temperature
  Formation of Impurity 1: ~0.8%
  Formation of Impurity2: ~0.3%
[3]; [7]
  Formation of Impurity 1: < 0.3%
  Formation of Impurity2: ~0.1%
Female Beagle dogs; 6 and 10 mg/kg, between 6 and 12 hours following treatment
  Increases in blood pressure (slight, non-dose-dependent): 9-16 % above controls
Female Beagle dogs; IV, female Beagle dogs
  Doses with no observable adverse effects on cardiovascular or pulmonary function: ≤ 10 mg/kg
  Doses with no observable adverse effects on cardiovascular or pulmonary function, as HED: ≤ 200 mg/m^2
Female Beagle dogs; all animals, approximately 24 hours post-dose
  Test article-related clinical observations: observations of vomitus
Female Beagle dogs; single IV injection 6 and 10 mg/kg, female Beagle dogs
  Mortality, body temperature, heart rate, ECG parameters (PR, RR, QRS, QT, QTc), respiratory rate: did not produce mortality or changes
CYP1A2
  IC50: 550 nM
[4]
  Effect of buffering capacity on stability: little effect
[5]
  Dose (MTD): 41.8 (MTD) mg/m^2
[5]; in vivo
  Mean difference of AUC(0-48h) between the 2 formulations: 5%
  Portion of platinum in circulation free in the ultrafiltrate: < 1%
  Ultrafiltrate platinum to total ratio at Cmax: 0.06
  Ultrafiltrate to total AUC ratio: 0.0056
[5]; in vivo, iv
  Plasma free platinum AUC: 20.6 µM·h
  Plasma free platinum Cmax: 15.9 µM
Microsomal stability
  Stability in microsome preparations: below the limit of quantitation; also recorded: disappeared quickly
CYP2B6
  IC50: 582 nM
Male rats; in vivo, 14 mg/kg
  Renal function and renal injury: Evidence of reduced renal function and renal injury
Male rats; in vivo, 19 mg/kg
  Inflammatory response (leukocytes, neutrophils, monocytes, lymphocytes): Evidence of an inflammatory response
Male rats; in vivo, 23 mg/kg
  Body weight: Decreases in body weight were noted throughout the study
Male rats; single IV dose, corresponds to 19 mg/kg
  MTD and STD10 (MTD dose): 122 mg/m^2 and 120 (MTD*) mg/m^2 and 120 (MTD^1) mg/m^2
[6]
  MTD: 19 mg/kg
